Experimental data from patent US20230091848A1, “DISEASE DETECTION AND TREATMENT BASED ON PHENYLACETYL GLUTAMINE LEVELS” (The Cleveland Clinic Foundation, priority 2020, published 2023).

Assays:
[1] = tested on: FeCl3-induced carotid artery injury model; test: Carotid artery FeCl3 injury thrombosis assay; assay type: in vivo, mice; conditions: carvedilol 1.5 g/kg for one week; PAGln i.p.
Experimental: Briefly, rhodamine 6G (100 μL; 0.5 mg/mL) was injected directly into the right jugular vein to label platelets. The left carotid artery was exposed and injured by placing a FeCl3-soaked filter paper for 1 minute. […] Time to cessation of blood flow through clot formation for all studies was determined by visual inspection by two different investigators. End points were set as cessation of blood flow for 30 seconds to 30 minutes.

HEL92.1.7 cells = test: Dynamic mass redistribution (DMR) in HEL92.1.7 cells; assay type: cell-based, human; conditions: increasing concentrations
Experimental: (§1) Before proceeding for the experiments, cells were subjected to overnight incubation in reduced serum media opti-MEM. […] The cells were briefly centrifuged at room temperature at low speed (100 g for 10-15 sec) to allow settling down the cells at the bottom of the plate. After that, cells were allowed to temperature equilibrate for 1 h at room temperature prior to run DMR measurement. Firstly, basal DMR responses were graphed for around 15 min to obtain a baseline read that defines the zero level and also ensures the signal is stable. […] DMR response signal was recorded for 60-90 minutes post compound of interest addition.

MEG01 cells [2] = test: Dynamic mass redistribution (DMR) in MEG01 cells; assay type: cell-based, human
Experimental: as §1

[3] = Metabolism of phenylacetic acid after i.p. injection; assay type: in vivo; conditions: intraperitoneal (i.p.) injection in mice
[4] = tested on: human platelet rich plasma (PRP); test: Platelet aggregometry in platelet rich plasma; assay type: cell-based; conditions: inhibitor 10 μM; PAGln 100 μM; ADP 2 μM
Experimental: ADP (up to 4 μM), TRAP6 (up to 10 μM) and collagen (up to 1.0 μg/mL) were used as indicated to initiate aggregation with constant stirring (600 rpm).

MEG01 cells [5] = test: cAMP assay in MEG01 cells; assay type: cell-based, human
Experimental: Real-time (RT) PCR in MEG01 cells: Total RNA was isolated from MEG01 cells following TRIZOL RNA isolation protocol post 40 h of siRNA transfection. […] Real time (RT) PCR was carried out following TaqMan Gene Expression Assays protocol using RT primers and probes of ADRA2A (assay Id Hs01099503_s1), ADRA2B (assay Id Hs00265081 s1) and ADRB2 (assay Id Hs00240532_s1) from ThermoFisher Scientific. cAMP assay in MEG01, Platelets and HEK293 cells: Intracellular cAMP levels were measured using CatchPoint Cyclic-AMP Fluorescent Assay Kit from molecular devices (Cat. R8089). Briefly, MEG01 cells were washed with 1×HBSS buffer with HEPES (20 mM; pH 7.4) and re-suspended in stimulation buffer (1×HBSS, HEPES (20 mM); pH 7.4, IBMX (0.5 mM), Rolipram (0.1 mM) and BSA (0.1%)). The cells were further seeded into 96 well cell culture plates with a density of ˜100 k cells per well in 100 μL stimulation buffer. Similarly, human washed platelets re-suspended very gently in stimulation buffer and seeded into a 96-well cell culture plates with ˜4-6 million platelets per well in 100 μL stimulation buffer. Both the MEG01 cells and platelets were kept thereafter at 37° C. incubator for 10 min before addition of the inhibitors or test compounds. Following incubation with stimulation buffer, 10 μL (10× concentration) of modulators/inhibitors (when necessary) were added and kept for 15 min at 37° C. […] The test compounds were made in buffer T (1×HBSS, HEPES (20 mM); pH 7.4, IBMX (0.5 mM) and Rolipram (0.1 mM)). The reaction was stopped by adding 50 μL of lysis buffer (provided in the kit CatchPoint Cyclic-AMP Fluorescent Assay Kit Cat. R8089-Molecular Devices), further added with IBMX (0.5 mM) and Rolipram (0.1 mM)) and agitated for 10 min in a plate shaker to facilitate cell lysis. Lysed cells are immediately proceeded to cAMP assay. For the quantification of cAMP, the lysed sample (40 μL), buffer control and cAMP calibrators were added in appropriate wells of a 96-well clear bottom, black wall cAMP assay plates (provided in the kit). Thereafter, reconstituted rabbit anti-cAMP antibody (40 μL) was added to all the wells and mix for 5 min on a plate shaker to ensure mixing. In the next step, reconstituted HRP-cAMP conjugate (40 μL) was added to every well, mixed properly and kept at room temperature for 2 h. The plate contents were aspirated thereafter and washed with wash buffer (300 μL (provided in the kit)) 4 times. Spotlight red substrate (provided in the kit) was added to each well minimizing the time between starting and finishing in dark. The plate was covered with aluminum foil and left at room temperature for at least 10 min before reading fluorescence intensity in a FlexStation 3 Multi-Mode Microplate Reader-Molecular devices. […] For cAMP assay in adherent cell lines, parental HEK293, and β2-HEK293 (stable) cells were seeded into 96-well cell culture microplates with approximately 50 k cells per well in DMEM (100 μL) media supplemented with FBS (10%), penicillin (100 U/mL) and streptomycin (100 μg/mL) in a humidified atmosphere at 37° C. in 5% CO2. Cells were grown for 24 h before proceeding for cAMP experiment following similar method as described for MEG01 cells. Intracellular Ca^2+ measurement: Intracellular Ca^2+ in MEG01, HEL92.1.7, parental HEK293, β2-HEK293 (stable) cells, empty vector (EV) transfected HEK293 cells, ADRA2A transfected HEK293 cells and in α2B-HEK293 stable cells was measured using FLIPR Calcium 5 Assay Kit-Molecular devices (Cat. R8186). […]

## COc1ccccc1OCCNCC(O)COc1cccc2[nH]c3ccccc3c12 (centres unmarked) [carvedilol]
[1]
  pro-thrombotic effect of PAGln on clot formation rate and occlusion time: reversed by pretreatment of mice with carvedilol

## NC[C@H](O)c1ccc(O)c(O)c1 [norepinephrine]
HEL92.1.7 cells
  DMR dose-response signal: like norepinephrine
MEG01 cells [2]; increasing concentrations
  DMR dose response curves: saturable and specific DMR dose response curves

## O=C(O)Cc1ccccc1 [phenylacetic acid]
[3]
  metabolic fate: predominantly metabolized into PAGly

## N[C@@H](Cc1ccccc1)C(=O)O [phenylalanine]
MEG01 cells [2]; addition of ligand
  DMR response: displayed no DMR response

## CC(C)NCC(O)COc1cccc2ccccc12 (centres unmarked) [propranolol]
[4]
  PAGln induced hyperresponsiveness of platelet aggregation: attenuated the PAGln induced hyperresponsiveness
MEG01 cells [5]
  intracellular cAMP production after ISO treatment, with ADR inhibitors: reduced
MEG01 cells [5]; PAGln 100 μM, 5 min exposure, inhibitor 10 μM
  PAGln induced intracellular cAMP production after ADR inhibitors: inhibited PAGln (5 min exposure) induced intracellular cAMP production
MEG01 cells [2]; ATP 50 μM, inhibitor 10 μM
  DMR response to ATP after ADR inhibitors: remained unchanged
MEG01 cells [2]; ISO 10 μM, inhibitor 10 μM
  DMR response of isoproterenol (ISO) after ADR inhibitors: diminished
MEG01 cells [2]; PAGln 100 μM, inhibitor 10 μM, 30 min
  PAGln-induced DMR response after ADR inhibitors: substantially reduced
